Measured values reported in patent US5616618A, “Threo-3-(3,4-dihydroxyphenyl)serine analgesic composition” (priority 1993, dated 1997).
Entries after “also recorded” stand apart in the source; their conditions may differ.

Key:
[1] = cited from earlier work
mouse = test: Acute toxicity (LD50) in mouse; details: oral and intraperitoneal
[2] = Acute toxicity (LD50) in mouse; details: in vivo
mice [3] = test: Tail flick test, subcutaneous L-threo-DOPS; assay type: in vivo
Method: Thermal stimulation at a certain level was given onto mice at the tail, and the latency until the animal flicked the tail out of the thermal stimulation was measured. The analgesic effect was judged in terms of prolonged latency by administration of a drug (tail-flick test, see European Journal of Pharmacology, 212, 1992).
The test was conducted by using a tail flick analgesia meter (MK-330, Muromachi Kikai). The intensity of the beam was adjusted to produce a control latency of 2 to 2.5 seconds, and a cut-off time was set to be 8 seconds. The experimental data obtained were shown in terms of latency (second).
L-Threo-DOPS was suspended in a 0.2% Tween 80 solution and the resulting suspension was subcutaneously administered in a dose of 100 to 400 mg/kg. The tail flick latency was then measured with passage of time to determine antinociceptive action, namely, analgesic activity.
(§1) In the left graph, the symbol .largecircle. denotes the group administered with vehicle only (n=8), and the symbol .circle-solid. denotes the group administered with L-threo-DOPS (n=5). […] In the right graph, the symbol V denotes the group administered with vehicle only. *P<0.05, **P<0.01 (when compared to the group administered with vehicle only).
(§2) The results obtained in the respective tests are all shown by means ±standard error. Statistically significant difference between the groups was determined by Student's t-test or Newman-Keuls test. When P<0.05, the difference was judged to be significant.

mice [4] = test: Kaolin-induced writhing test; assay type: in vivo
Excerpt: (§3) Mice were used for the kaolin-induced writhing test and the formalin test, wherein animal model for assessment of chronic pain is used [Pain, 51, 195-198 (1992)].
b) Kaolin-Induced Writhing Test
The test was proposed by Fujiyoshi, T. et al. as a nociceptive test for the assessment of endogenous bradykinin-induced pain [Fujiyoshi et al., Agents and Actions, 27, 332 (1989)]. In the present invention, a method somewhat modified from the Fujiyoshi test was used for the assessment. That is, a suspension of 125 mg/kg of kaolin in 0.2% Tween 80 solution was intraperitoneally administered to mice in a dose of 0.25 ml/10 g. Immediately thereafter, the total number of writhing reactions which were observed during 20 minutes was counted.
Thirty minutes, 1 hour and 2 hours before administration of kaolin, L-threo-DOPS was subcutaneously administered in a dose ranging from 100 to 400 mg/kg.
as §1, with “only,” for “only (n=8),”, “L-threo-DOPS.” for “L-threo-DOPS (n=5).”, “The” for “In the right graph, the”, “only (n=5). **P<0.01, ***P<0.001” for “only. *P<0.05, **P<0.01”
as §2

mice [5] = test: Effect of naloxone on L-threo-DOPS antinociception, tail flick test; assay type: in vivo; details: for type of analgesic activity: from naloxone tests (tail flick and kaolin)
Method: (§4) Antagonistic Effect of L-threo-DOPS Antinociceptive Action on Naloxone (Morphine Antagonist)
(§5) Tests were conducted in the same way as the tail flick test method and the kaolin-induced writhing test method in Test Example 1 described above. In the tail flick test method, however, 1 mg/kg of naloxone was subcutaneously administered 40 minutes after administration of 400 mg/kg of L-threo-DOPS, and the latency was measured 60 minutes after the 400 mg/kg L-threo-DOPS administration. The obtained data are shown in terms of change in latency (Δ latency). In the kaolin-induced writhing test, 0.01 mg/kg of naloxone was subcutaneously administered 55 minutes after administration of 400 mg/kg of L-threo-DOPS, and kaolin was administered 5 minutes after the administration of naloxone.
(§6) The results obtained in the tests are all shown by means ±standard error. Statistically significant difference between the groups was determined by Student's t-test or Newman-Keuls test. When P<0.05, the difference was judged to be significant.
(§7) The symbol V denotes the group administered with vehicle only, and the symbol N.S. denotes that there is no significant difference as compared to the control group.

mice [6] = test: Effect of phentolamine on L-threo-DOPS antinociception, tail flick test; assay type: in vivo
Method: Effect of Phentolamine as an α-Adrenaline Receptor Blocker on the Antinociceptive Action of L-threo-DOPS
Phentolamine was administered intracerebral-ventricularly (i.c.v.) or intrathecaly (i.th.) in a dose of 0.1 to 1 μg/mouse, 40 minutes after L-threo-DOPS was administered in a dose of 400 mg/kg. Then, the effect of phentolamine against L-threo-DOPS-induced antinociceptive action was determined in the tail flick test.
Statistically significant difference between the groups was determined by Student's t-test or Newman-Keuls test. When P<0.05, the difference was judged to be significant.
The results in FIG. 5 indicates change in latency (Δ latency, second) 60 minutes after the L-threo-DOPS administration.

mice [7] = test: Formalin-induced nociceptive test; assay type: in vivo
Method: as §3
c) Formalin-Induced Nociceptive Test
Formalin (0.5%, 25 μl) was administered subcutaneously into a mouse at the sole of the right hind paw. Immediately thereafter, the time required for the mouse to conduct licking or biting behavior was counted for 30 minutes at intervals of 5 minutes. The results are shown separately for Phase I (0-5 minutes after the formalin administration) and Phase II (10-30 minutes after the formalin administration). […]
The symbol V denotes the group administered with vehicle only. *P<0.05 (as compared to the group administered with vehicle only).
as §2

mice [8] = test: Tail flick test, oral L-threo-DOPS; assay type: in vivo
Method: Antinociceptive Action of L-threo-DOPS by Oral Administration
L-Threo-DOPS was orally administered to mice in doses of 200, 400 and 800 mg/kg, and was examined for the antinociceptive action according to the tail flick test method.
(§8) The results obtained in this test are all shown by means ±standard error. Statistically significant difference between the groups was determined by Student's t-test or Newman-Keuls test. When P<0.05, the difference was judged to be significant.
The results in FIG. 7 indicate, in the tail flick test, a relationship between the dose of L-threo-DOPS when orally administered and change in latency (Δ latency, second) 60 minutes after the L-threo-DOPS administration (n=6). *P<0.05, **P<0.01 (as compared to the control group).

mice [9] = test: Effect of benserazide on L-threo-DOPS antinociception, tail flick test; assay type: in vivo; details: L-threo-DOPS 400 mg/kg s.c., 60 minutes
Method: Effect of Benserazide (Peripheral Nerve Decarboxylase Inhibitor) on the Antinociceptive Action of L-threo-DOPS
Benserazide was administered subcutaneously in a dose of 1 mg/kg, 60 minutes before the subcutainious administration of L-threo-DOPS (400 mg/kg). Alternatively, benserazide was administered intracerebralventricularly at a dose of 25 μg/mouse, 30 minutes before L-threo-DOPS was subcutaneously administered in a dose of 400 mg/kg. The effect of benserazide on the L-threo-DOPS-induced antinociceptive action 60 minutes after the L-threo-DOPS administration was examined according to the tail flick test.
as §8
The results in FIG. 6 indicate change in latency (Δ latency, second) 60 minutes after the L-threo-DOPS administration. […] The symbol V denotes the group administered with vehicle only, and the symbol N.S. denotes that there is no significant difference as compared to the control group.

mice [10] = test: Effect of naloxone on L-threo-DOPS antinociception, kaolin-induced writhing test; assay type: in vivo; details: L-threo-DOPS 400 mg/kg; naloxone 0.01 mg/kg s.c.; 60 minutes
Method: as §4, §5, §6, §7

[11] = 100 to 400 mg/kg s.c., 60 minutes after administration

SMILES: N[C@H](C(=O)O)[C@H](O)c1ccc(O)c(O)c1 (relative stereo) [threo-DOPS, threo-3-(3,4-dihydroxyphenyl)serine]
- fate after administration ([1]; known, U.S. Pat. No. 4,497,826): transported to a brain that is a site on which threo-DOPS acts, and then decarboxylated therein into a corresponding noradrenaline
- transportation into brain in combination with decarboxylase inhibitor ([1]; with decarboxylase inhibitor, J. Pharm. Pharmacol., 1981, 33, 772-777): can be accelerated
- toxicity (mouse): extremely weak toxicity
- LD50 ([2]; ip): ~10000 mg/kg
- LD50 ([2]; po): ≥ 10000 mg/kg
- analgesic effect in tail-flick test (summary) (mice [3]; s.c., mice): exhibits the analgesic effect dose-dependently
- analgesic effect in kaolin-induced writhing test (summary) (mice [4]; s.c. and oral, mice): dose- dependently observed
- type of analgesic activity (mice [5]): non-narcotic
- analgesic effect in presence of naloxone (summary) (mice [5]; morphine antagonist naloxone, tail flick and kaolin tests): not antagonized by morphine antagonist, naloxone
- analgesic effect in presence of phentolamine (summary) (mice [6]; adrenaline blocker phentolamine administered in the brain): suppressed
- analgesic effect in formalin test (summary) (mice [7]; s.c. and oral, mice): dose- dependently observed

SMILES: N[C@H](C(=O)O)[C@H](O)c1ccc(O)c(O)c1 [L-threo-DOPS]
- time after administration at which significantly prolonged tail flick latency was observed (mice [3]; 400 mg/kg s.c.): ≥ 40 min
- time of maximum tail flick latency (mice [3]; 400 mg/kg s.c.): one
- tail flick latency (mice [3]; 400 mg/kg s.c., 40 or more minutes after administration): significantly prolonged latency
- tail flick latency, significance of effect (mice [3]; 400 mg/kg s.c., 2 hours after administration): no significant effect was observed
- antinociceptive action, dose dependence (tail flick) (mice [3]; [11]): dose-dependent in the range of 100 to 400 mg/kg
- antinociceptive action, kaolin-induced writhing (mice [4]; 200 mg/kg s.c.): significant antinociceptive action
- count of kaolin-induced writhing response (mice [4]; 200 mg/kg s.c.): decreased to the half
- decrease in writhing count (mice [4]; 200 mg/kg s.c., 30 minutes after administration): the observed decrease was insignificant
- decrease in writhing count (mice [4]; 200 mg/kg s.c., 2 hours after administration): the observed decrease was insignificant
- effect on writhing, dose dependence (mice [4]; [11]): dose-dependent in the range of 100 to 400 mg/kg
- effectiveness by oral administration (mice [8]; oral): also effective when orally administered
- time after administration at which significant effect was observed (mice [8]; oral, 200, 400 and 800 mg/kg): ≥ 40 min
- time of maximum antinociceptive effect (mice [8]; oral, 200, 400 and 800 mg/kg): 60 min
- antinociceptive action, dose dependence (oral tail flick) (mice [8]; oral, 200 to 800 mg/kg): dose-dependently
- antinociceptive action in presence of benserazide (mice [9]; benserazide 25 μg/mouse i.c.v.): potently inhibited
- antinociceptive action in presence of benserazide (mice [9]; benserazide 1 mg/kg s.c.): did not give any significant effect
- antinociceptive action in presence of naloxone (tail flick) (mice [5]; L-threo-DOPS 400 mg/kg, naloxone 1 mg/kg s.c., 60 minutes): hardly affected by morphine antagonist, naloxone
- type of analgesic activity (mice [5]): non-narcotic analgesic activity; also recorded: non-opiate type antinociceptive action
- antinociceptive action in presence of naloxone (kaolin-induced writhing) (mice [10]): hardly affected by morphine antagonist, naloxone
- inhibitory effect of phentolamine on L-threo-DOPS-induced prolongation of latency (mice [6]; L-threo-DOPS 400 mg/kg s.c., phentolamine 0.1 μg/mouse i.c.v.): also observed
- prolongation of latency by L-threo-DOPS in presence of phentolamine (mice [6]; L-threo-DOPS 400 mg/kg s.c., phentolamine 1 μg/mouse i.c.v.): almost completely inhibited
- antinociceptive action of L-threo-DOPS in presence of phentolamine, right graph of FIG. 5 (mice [6]; L-threo-DOPS 400 mg/kg s.c., phentolamine 1 μg/mouse, printed intracerebralventricularly (right graph)): partially but significantly inhibited
- effect of increased dose in formalin test (mice [7]; 400 mg/kg s.c., not shown in graphs): no better effect was obtained
- time required for nociceptive reaction (licking and biting), Phase I (mice [7]; 100 to 200 mg/kg s.c., 0-5 minutes after formalin): did not affect the time required for the nociceptive reaction
- time required for nociceptive reaction (licking and biting), Phase II (mice [7]; 100 to 200 mg/kg s.c., 10-30 minutes after formalin): dose-dependently inhibited the reaction

SMILES: Cc1ccc(N(CC2=NCCN2)c2cccc(O)c2)cc1 [phentolamine]
- tail flick latency, phentolamine alone (mice [6]; phentolamine 1 μg/mouse i.c.v.): did not affect the latency
